{
  "source": "patent US20260118345A1",
  "about": "“METHOD OF EVALUATING INTERCELLULAR INTERACTIONS IN NEUROINFLAMMATION” (FUJIFILM Corporation, priority 2023, published 2026)",
  "format_in_all_cases": "cell-based, human",
  "key": {"NF-κB [1]": {"test_system": "NF-κB", "test": "NF-κB localization after LPS stimulation, two-cell-type co-culture of nerve and astrocytes", "conditions": "co-culture without microglia, all time points"}, "NF-κB [2]": {"test_system": "NF-κB", "test": "NF-κB localization after LPS stimulation, three-cell-type co-culture containing about 0.11% microglia", "conditions": "proportion of microglia about 0.11%", "protocol": "The amount of cells required for the activated microglia to affect other cells was examined. Two-dimensional three-cell-type co-cultures of astrocytes, neurons, and microglia in which the proportion of the microglia was about 11%, 1.1%, and 0.11% were produced by the same method as in <1> of Test Example 1. In addition, the cells were subjected to LPS stimulation and fixed by the same method as in <1> of Test Example 1. Furthermore, the localization of NF-κB was evaluated by the same method as in <1> of Test Example 1."}, "STAT1 [3]": {"test_system": "STAT1", "test": "STAT1 localization by immunostaining after LPS stimulation, three-cell-type co-culture of neurons, astrocytes and microglia", "conditions": "LPS 100 ng/mL", "protocol": "Microglia were specifically stimulated by adding LPS (FUJIFILM Wako Pure Chemical Corporation, 124-05151) at 100 ng/mL to the two-dimensional co-culture that had been cultured for 4 weeks. The cells were fixed by treating, for 30 minutes, with a formaldehyde solution (FUJIFILM Wako Pure Chemical Corporation, 061-00416) diluted 10-fold with PBS(−) (FUJIFILM Wako Pure Chemical Corporation, 166-23555) without treatment, and at 0.5 hours, 1 hour, 3 hours, 6 hours, and 24 hours after the treatment. […]\nThe next day, the cells were washed with PBS (−), then as a secondary antibody reaction, treated with Donkey anti-goat Alexa Fluor (registered trademark) 488 (Thermo Fisher Scientific, A11055) diluted 1000-fold, Donkey anti-rabbit Alexa Fluor (registered trademark) 594 (Thermo Fisher Scientific, A32754) diluted 1000-fold, and Hoechst (registered trademark) 33342 (Dojindo, 346-07951) diluted 1000-fold as a secondary antibody reaction, and allowed to stand at room temperature for 60 minutes. After washing with PBS (−), the cells were imaged with a fluorescence microscope (Nikon, ECLIPSE Ti) to acquire an image. […]"}, "STAT1 [4]": {"test_system": "STAT1", "test": "STAT1 localization after LPS stimulation, two-cell-type co-culture of nerve and astrocytes", "conditions": "co-culture without microglia, all time points"}, "[5]": {"test_system": "three-cell-type co-culture of neurons, astrocytes, and microglia", "test": "Neural activity by calcium imaging (BPM), two-dimensional three-cell-type co-culture of neurons, astrocytes and microglia", "conditions": "24 hours after stimulation (TNF-α 7.5 ng/mL or LPS 100 ng/mL)", "protocol": "Matrigel basement membrane matrix (Corning, 356234) diluted 120-fold with DMEM/F12 (Life technologies, 11320-033) was added to a 96-well plate at 65 μL/well and allowed to stand at 4° C. After 24 hours, the culture medium was replaced with a progenitor cell culture medium and used. Astrocyte precursor cells (XCell Science, XCS-AP-001-1V) were seeded in a 96-well plate at a density of 6×10^4 cells/well, cultured under the conditions of 37° C. and 5% CO2, after culture medium was replaced with the differentiation induction culture medium, further cultured for 5 days to differentiate into astrocytes. […] After centrifugation, the supernatant was removed, the cells were suspended in 1 mL of the co-culture medium, and the number of cells was counted. […] After centrifugation, the supernatant was removed, the cells were suspended in 1 mL of the co-culture medium, and the number of cells was counted. […] In addition, at 24 hours after the stimulation with LPS or TNF-α, the neural activity was evaluated by calcium imaging. […] After incubating for 1 hour under conditions of 37° C. and 5% CO2, the solution was replaced with a warmed (37° C.) recording solution, and the fluorescence was measured for 10 minutes with FDSS (registered trademark)/μcell (Hamamatsu Photonics K. K., C13299). […]"}},
  "data": [
    {"substance": "lipopolysaccharide [LPS]", "values": [
      {"measurement": "nuclear translocation of NF-κB", "setting": "NF-κB [1]", "result": "not observed at any time"},
      {"measurement": "nuclear translocation of NF-κB", "setting": "NF-κB [2]; 1 hour after the LPS treatment", "result": "only some cells"},
      {"measurement": "nuclear translocation of NF-κB", "setting": "NF-κB [2]; 3 hours and 6 hours after the LPS treatment", "result": "many cells"},
      {"measurement": "STAT1 localized in the nucleus", "setting": "STAT1 [3]; 1 hour and 3 hours after the LPS stimulation", "result": "some cells"},
      {"measurement": "STAT1 localized in the nucleus", "setting": "STAT1 [3]; 6 hours after the stimulation", "result": "many cells"},
      {"measurement": "nuclear translocation of STAT1", "setting": "STAT1 [4]", "result": "not observed at any time"},
      {"measurement": "BPM (the number of peaks of calcium oscillation per minute) as compared with the control", "setting": "[5]", "result": "increase"}
    ]}
  ]
}
